From ChEMBL document CHEMBL2203057, “Characterisation of [¹¹C]PR04.MZ in Papio anubis baboon: a selective high-affinity radioligand for quantitative imaging of the dopamine transporter” (Bioorg Med Chem Lett, 2012)

How the values were obtained:
[1] = target: Sodium-dependent dopamine transporter (Rattus norvegicus, UniProt P23977); assay: Binding affinity to rat DAT
[2] = target: T1, Sodium-dependent dopamine transporter (Homo sapiens, UniProt Q01959); assay: Binding affinity to DAT
[3] = Drug distribution in Papio anubis putamen assessed as drug influx constant at 137.4 +/- 66.8 MBq; format: ADME, tissue-based
[4] = In vivo binding affinity to DAT in Papio anubis putamen assessed as binding potential at 137.4 +/- 66.8 MBq; format: ADME, organism-based
[5] = Drug uptake in Papio anubis ventral striatum at 137.4 +/- 66.8 MBq measured 45 mins post dose by dynamic PET scanning method; format: ADME, tissue-based; settings: 0.75 h
[6] = Drug uptake in Papio anubis midbrain at 137.4 +/- 66.8 MBq measured 60 mins post dose co-treated with DAT ligand [18F]PR04.MZ by dynamic PET scanning method; format: ADME, tissue-based; settings: 1 h
[7] = In vivo binding affinity to DAT in Papio anubis cerebellum assessed as binding potential at 137.4 +/- 66.8 MBq; format: ADME, organism-based
[8] = Drug uptake in Papio anubis caudate nucleus assessed per 100 ml at 137.4 +/- 66.8 MBq measured 25 mins post dose by dynamic PET scanning method; format: ADME, tissue-based
[9] = Drug uptake in Papio anubis mid brain at 137.4 +/- 66.8 MBq measured 45 mins post dose by dynamic PET scanning method; format: ADME, tissue-based, Midbrain; settings: 0.75 h
[10] = Drug uptake in Papio anubis striatum assessed per 100 ml at 137.4 +/- 66.8 MBq measured 25 +/- 2.5 mins post dose by dynamic PET scanning method; format: ADME, tissue-based
[11] = In vivo binding affinity to DAT in Papio anubis ventral striatum assessed as binding potential at 137.4 +/- 66.8 MBq; format: ADME, organism-based
[12] = Drug uptake in Papio anubis caudate nucleus at 137.4 +/- 66.8 MBq measured 60 mins post dose co-treated with DAT ligand [18F]PR04.MZ by dynamic PET scanning method; format: ADME, tissue-based; settings: 1 h
[13] = Drug distribution in Papio anubis caudate nucleus assessed as drug efflux constant at 137.4 +/- 66.8 MBq; format: ADME, tissue-based
[14] = Drug uptake in Papio anubis striatum assessed per 100 ml at 137.4 +/- 66.8 MBq measured 180 mins post dose by dynamic PET scanning method; format: ADME, tissue-based; settings: 3 h
[15] = Unbound fraction in Papio anubis plasma at 137.4 +/- 66.8 MBq; format: ADME, cell-free
[16] = Drug uptake in Papio anubis ventral striatum at 137.4 +/- 66.8 MBq measured 7.5 +/- 0.5 mins post dose by dynamic PET scanning method; format: ADME, tissue-based
[17] = Drug distribution in Papio anubis cerebellum assessed as drug influx constant at 137.4 +/- 66.8 MBq; format: ADME, tissue-based
[18] = Stability in Sprague-Dawley rat brain assessed as intact compound level measured 60 mins post dose by HPLC; format: ADME, tissue-based; settings: read-out: Stability
[19] = Drug uptake in Papio anubis putamen assessed per 100 ml at 137.4 +/- 66.8 MBq measured 25 +/- 2.5 mins post dose by dynamic PET scanning method; format: ADME, tissue-based
[20] = Drug uptake in Papio anubis striatum assessed per 100 ml at 137.4 +/- 66.8 MBq measured 90 mins post dose by dynamic PET scanning method; format: ADME, tissue-based; settings: 1.5 h
[21] = Stability in Papio anubis plasma assessed as intact compound level at 137.4 +/- 66.8 MBq measured 30 mins post dose; format: ADME, cell-free; settings: read-out: Stability
[22] = Drug uptake in Papio anubis putamen at 137.4 +/- 66.8 MBq measured 60 mins post dose co-treated with 1.5 mg/kg DAT ligand GBR12909 by dynamic PET scanning method; format: ADME, organism-based; parameters: dose 1.5 mg/kg; settings: in vivo, 1 h
[23] = In vivo binding affinity to DAT in Papio anubis caudate nucleus assessed as binding potential at 137.4 +/- 66.8 MBq; format: ADME, organism-based
[24] = Drug distribution in Papio anubis cerebellum assessed as drug efflux constant at 137.4 +/- 66.8 MBq; format: ADME, tissue-based
[25] = Drug distribution in Papio anubis ventral striatum assessed as drug influx constant at 137.4 +/- 66.8 MBq; format: ADME, tissue-based
[26] = test system: Nucleic Acid; assay: Ratio of drug level in midbrain to cerebellum in Papio anubis midbrain at 137.4 +/- 66.8 MBq measured 90 mins post dose; format: ADME; settings: 1.5 h
[27] = test system: Brain; assay: Drug uptake in Papio anubis whole brain assessed per 100 ml at 137.4 +/- 66.8 MBq measured 3 +/- 0.5 mins post dose by dynamic PET scanning method; format: ADME, tissue-based
[28] = Drug distribution in Papio anubis caudate nucleus assessed as drug influx constant at 137.4 +/- 66.8 MBq; format: ADME, tissue-based
[29] = Drug uptake in Papio anubis mid brain at 137.4 +/- 66.8 MBq measured 3.5 mins post dose by dynamic PET scanning method; format: ADME, tissue-based, Midbrain
[30] = Drug uptake in Papio anubis mid brain at 137.4 +/- 66.8 MBq measured 90 mins post dose by dynamic PET scanning method; format: ADME, tissue-based, Midbrain; settings: 1.5 h
[31] = Drug uptake in Papio anubis putamen at 137.4 +/- 66.8 MBq measured 60 mins post dose co-treated with DAT ligand [18F]PR04.MZ by dynamic PET scanning method; format: ADME, tissue-based; settings: 1 h
[32] = Drug uptake in Papio anubis caudate nucleus at 137.4 +/- 66.8 MBq measured 60 mins post dose co-treated with 1.5 mg/kg DAT ligand GBR12909 by dynamic PET scanning method; format: ADME, organism-based; parameters: dose 1.5 mg/kg; settings: in vivo, 1 h
[33] = Drug uptake in Papio anubis ventral striatum at 137.4 +/- 66.8 MBq measured 90 mins post dose by dynamic PET scanning method; format: ADME, tissue-based; settings: 1.5 h
[34] = In vivo binding affinity to DAT in Papio anubis midbrain assessed as binding potential at 137.4 +/- 66.8 MBq; format: ADME, organism-based
[35] = Drug uptake in Papio anubis midbrain at 137.4 +/- 66.8 MBq measured 60 mins post dose co-treated with 1.5 mg/kg DAT ligand GBR12909 by dynamic PET scanning method; format: ADME, organism-based; parameters: dose 1.5 mg/kg; settings: in vivo, 1 h
[36] = Drug distribution in Papio anubis ventral striatum assessed as drug efflux constant at 137.4 +/- 66.8 MBq; format: ADME, tissue-based
[37] = Drug distribution in Papio anubis midbrain assessed as drug influx constant at 137.4 +/- 66.8 MBq; format: ADME, tissue-based
[38] = Drug distribution in Papio anubis putamen assessed as drug efflux constant at 137.4 +/- 66.8 MBq; format: ADME, tissue-based
[39] = Drug distribution in Papio anubis midbrain assessed as drug efflux constant at 137.4 +/- 66.8 MBq; format: ADME, tissue-based
[40] = target: T2, Sodium-dependent noradrenaline transporter (Homo sapiens, UniProt P23975); assay: Displacement of [3H]nisoxetine from human NET expressed in HEK293 cells; format: cell-based
[41] = target: T3, Sodium-dependent serotonin transporter (Homo sapiens, UniProt P31645); assay: Displacement of [3H]citalopram from human SERT expressed in HEK293 cells; format: cell-based
[42] = target: T1, Sodium-dependent dopamine transporter; assay: Displacement of [3H]WIN35,428 from human DAT expressed in HEK293 cells; format: cell-based
[43] = target: T1, Sodium-dependent dopamine transporter; assay: Displacement of [3H]DA from human DAT expressed in HEK293 cells; format: cell-based
[44] = target: T2, Sodium-dependent noradrenaline transporter; assay: Displacement of [3H]NE from human NET expressed in HEK293 cells; format: cell-based
[45] = target: T3, Sodium-dependent serotonin transporter; assay: Displacement of [3H]5-HT from human SERT expressed in HEK293 cells; format: cell-based
[46] = Lipophilicity, log D of the compound at pH 7.4 by HPLC; format: physicochemical; settings: buffer

T1 sequence (Q01959 whole entry): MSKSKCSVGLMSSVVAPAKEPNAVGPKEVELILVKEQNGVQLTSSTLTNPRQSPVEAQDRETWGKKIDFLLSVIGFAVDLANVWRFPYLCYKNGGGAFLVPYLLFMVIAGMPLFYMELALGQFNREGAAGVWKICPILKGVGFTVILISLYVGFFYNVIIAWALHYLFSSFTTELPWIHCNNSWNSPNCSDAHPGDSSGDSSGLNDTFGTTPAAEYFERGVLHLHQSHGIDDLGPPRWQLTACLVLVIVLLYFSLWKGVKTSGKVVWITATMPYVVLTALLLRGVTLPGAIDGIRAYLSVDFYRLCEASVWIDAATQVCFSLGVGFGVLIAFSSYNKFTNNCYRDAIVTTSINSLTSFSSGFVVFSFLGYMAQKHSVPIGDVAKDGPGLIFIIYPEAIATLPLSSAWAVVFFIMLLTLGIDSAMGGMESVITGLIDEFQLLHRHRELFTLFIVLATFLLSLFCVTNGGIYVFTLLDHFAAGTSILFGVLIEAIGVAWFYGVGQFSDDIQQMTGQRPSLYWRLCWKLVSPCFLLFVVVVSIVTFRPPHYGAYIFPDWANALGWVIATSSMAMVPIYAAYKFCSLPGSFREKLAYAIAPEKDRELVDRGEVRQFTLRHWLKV
T3 sequence (P31645 whole entry): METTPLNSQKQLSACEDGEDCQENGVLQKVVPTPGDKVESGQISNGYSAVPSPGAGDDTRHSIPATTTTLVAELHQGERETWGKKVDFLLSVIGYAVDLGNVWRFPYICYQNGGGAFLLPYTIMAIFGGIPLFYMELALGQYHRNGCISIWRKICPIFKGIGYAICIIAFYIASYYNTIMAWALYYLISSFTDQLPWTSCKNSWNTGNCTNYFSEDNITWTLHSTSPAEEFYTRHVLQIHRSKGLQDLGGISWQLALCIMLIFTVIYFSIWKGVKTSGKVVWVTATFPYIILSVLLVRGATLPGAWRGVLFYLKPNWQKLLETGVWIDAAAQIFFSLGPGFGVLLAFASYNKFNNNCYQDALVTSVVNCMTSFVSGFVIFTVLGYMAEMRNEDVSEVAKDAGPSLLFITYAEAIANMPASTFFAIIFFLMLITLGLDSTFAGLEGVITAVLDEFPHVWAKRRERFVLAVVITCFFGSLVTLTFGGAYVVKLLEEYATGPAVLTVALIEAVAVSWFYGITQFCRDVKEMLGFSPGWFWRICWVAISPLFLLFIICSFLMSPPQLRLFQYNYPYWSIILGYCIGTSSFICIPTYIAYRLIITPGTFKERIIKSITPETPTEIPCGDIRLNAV
T2 sequence (P23975 whole entry): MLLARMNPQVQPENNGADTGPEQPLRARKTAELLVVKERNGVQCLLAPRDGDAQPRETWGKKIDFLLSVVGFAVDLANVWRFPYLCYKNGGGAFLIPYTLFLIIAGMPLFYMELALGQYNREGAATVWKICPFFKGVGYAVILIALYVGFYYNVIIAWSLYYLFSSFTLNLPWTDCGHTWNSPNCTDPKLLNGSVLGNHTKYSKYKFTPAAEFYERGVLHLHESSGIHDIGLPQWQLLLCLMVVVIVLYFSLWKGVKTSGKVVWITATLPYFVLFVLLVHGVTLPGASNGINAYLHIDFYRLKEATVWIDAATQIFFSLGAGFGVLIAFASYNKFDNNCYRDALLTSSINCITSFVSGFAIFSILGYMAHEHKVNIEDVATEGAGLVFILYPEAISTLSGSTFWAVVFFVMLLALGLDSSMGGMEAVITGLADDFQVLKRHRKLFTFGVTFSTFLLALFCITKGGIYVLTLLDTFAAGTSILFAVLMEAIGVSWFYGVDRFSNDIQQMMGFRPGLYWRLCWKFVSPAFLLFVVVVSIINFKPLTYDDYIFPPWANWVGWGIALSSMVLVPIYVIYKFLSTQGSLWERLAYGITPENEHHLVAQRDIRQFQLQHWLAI
Chain of Sodium-dependent dopamine transporter (Rattus norvegicus, UniProt P23977) (P23977 whole entry): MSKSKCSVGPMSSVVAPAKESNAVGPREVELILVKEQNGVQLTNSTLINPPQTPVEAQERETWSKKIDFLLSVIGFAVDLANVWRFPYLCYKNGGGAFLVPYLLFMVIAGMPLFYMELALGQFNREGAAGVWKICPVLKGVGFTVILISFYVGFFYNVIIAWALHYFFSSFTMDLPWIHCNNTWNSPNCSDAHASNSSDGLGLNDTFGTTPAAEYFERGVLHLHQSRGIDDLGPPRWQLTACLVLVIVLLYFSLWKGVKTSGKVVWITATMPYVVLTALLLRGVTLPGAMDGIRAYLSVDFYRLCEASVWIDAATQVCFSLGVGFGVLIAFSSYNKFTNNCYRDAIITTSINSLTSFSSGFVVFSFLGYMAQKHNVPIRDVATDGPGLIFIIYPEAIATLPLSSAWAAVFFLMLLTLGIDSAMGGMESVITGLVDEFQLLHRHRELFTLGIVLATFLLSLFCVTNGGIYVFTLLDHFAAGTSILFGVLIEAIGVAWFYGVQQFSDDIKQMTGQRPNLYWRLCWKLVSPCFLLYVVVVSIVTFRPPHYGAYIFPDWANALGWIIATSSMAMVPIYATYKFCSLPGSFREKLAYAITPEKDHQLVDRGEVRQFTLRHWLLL

COC(=O)[C@H]1[C@@H](c2ccc(C)cc2)C[C@@H]2CC[C@H]1N2C/C=C/CF
Kd [1]: 9 nM

COC(=O)[C@H]1[C@@H](c2ccc(Cl)cc2)C[C@@H]2CC[C@H]1N2CCF
Ki [2]: 8 nM

COC(=O)[C@H]1[C@@H](c2ccc(C)cc2)C[C@@H]2CC[C@H]1N2C/C=C/I
Kd [1]: 4 nM

Cc1ccc([C@H]2C[C@@H]3CC[C@H]([C@H]2C(=O)O[11CH3])N3CC#CCF)cc1
Activity [3]: 0.015 ml/cm3/min
Activity [4]: 36.8 ml/cm3
Drug uptake [5]: 3.1 %ID/ml
Drug uptake [6]: Not Active
Activity [7]: 0 ml/cm3
Drug uptake [8]: 6.7 %ID
Drug uptake [9]: 1.3 %ID/ml
Drug uptake [10]: 7.6 %ID
Activity [11]: 8.2 ml/cm3
Drug uptake [12]: Not Active
Activity [13]: 0.004 min⁻¹
Drug uptake [14]: 4.8 %ID
Fu [15]: 4.4 %ID
Drug uptake [16]: 3.8 %ID/ml
Activity [17]: 0.144 ml/cm3/min
remaining at 1 h [18]: > 95%
Drug uptake [19]: 7.6 %ID
Drug uptake [20]: 6.7 %ID
remaining at 0.5 h [21]: 39%
Drug uptake [22]: Not Active
Activity [23]: 29.3 ml/cm3
Activity [24]: 0.036 min⁻¹
Activity [25]: 0.03 ml/cm3/min
Ratio [26]: 4.6
Drug uptake [27]: 26.1 %ID
Activity [28]: 0.017 ml/cm3/min
Drug uptake [29]: 2.8 %ID/ml
Drug uptake [30]: 0.8 %ID/ml
Drug uptake [31]: Not Active
Drug uptake [32]: Not Active
Drug uptake [33]: 2.55 %ID/ml
Activity [34]: 2.7 ml/cm3
Drug uptake [35]: Not Active
Activity [36]: 0.0076 min⁻¹
Activity [37]: 0.064 ml/cm3/min
Activity [38]: 0.004 min⁻¹
Activity [39]: 0.016 min⁻¹

COC(=O)[C@H]1[C@@H](c2ccc(C)cc2)C[C@@H]2CC[C@H]1N2CC#CCF
IC50 [40]: 22.5 nM
IC50 [41]: 108 nM
IC50 [42]: 1.93 nM
IC50 [43]: 3.26 nM
IC50 [44]: 31 nM
IC50 [45]: 240 nM
logD [46]: 2.7
